Reference: US20020042079A1, “METHODS AND AGENTS FOR MEASURING AND CONTROLLING MULTIDRUG RESISTANCE” (priority 1994, published 2002)

What was measured:
[1] = tested on: MCF-7/ADR cells; assay: Transport of BODIPY-transferrin from recycling endosomes to cell surface
[2] = tested on: MCF-7/ADR cells; assay: Transport of BODIPY-sphingomyelin from TGN to cell surface; format: cell-based, human; conditions: Tamoxifen 10 μM
Procedure: When accumulated at high concentrations, BODIPY-sphingomyelin undergoes a green to red shift in fluorescence emission.
Cells were fixed by washing two times in cold fixing buffer (1% paraformaldehyde, 0.1 M sodium cacodylate, 0.1 M sucrose, pH 7.2) followed by a 15 minute incubation in fixing buffer on ice, and then washing two times with cold fixing buffer without paraformaldehyde. […] Biophys.

[3] = tested on: MCF-7adr cells; assay: Bodipy-ceramide and Bodipy-lactalbumin labeling of TGN and pericentriolar recycling compartment; format: cell-based, human; conditions: tamoxifen treatment of MCF-7adr cells
From the text: Endocytotic pathway (fourth row): To examine internalization, Bodipy-lactalbumin (Bodipy-Lac, Molecular Probes, Eugene, Oreg.) was used as a fluid phase marker.
Conversion of Bodipy-ceramide to Bodipy-sphingomyelin (in cis-Golgi) is associated with the movement of the newly synthesized fluorescent lipid to the trans-Golgi network (TGN). As the Bodipy-sphingomyelin concentration increases within the TGN and secretory vesicles, a long wavelength shift in fluorescence occurs that results in red fluorescent structures (TGN and secretory vesicles) against a green fluorescent background. […] To examine internalization, Bodipy-lactalbumin (Bodipy-Lac, Molecular Probes, Eugene, Oreg.) was used as a fluid phase marker.

CC/C(=C(\c1ccccc1)c1ccc(OCCN(C)C)cc1)c1ccccc1 [Tamoxifen]
time for intracellular BODIPY-transferrin to decrease to 50% of its steady-state level ([1]; 10 μM tamoxifen): 30 min
BODIPY-transferrin remaining with cells after 25 minutes ([1]; Tamoxifen 10 μM): More than 60%
BODIPY-transferrin remaining with cells after five minutes ([1]; Tamoxifen 10 μM): more than 90%
sphingomyelin fluorescence remaining associated with the cells after two hours [2]: more than 70%
TGN structure (Bodipy-ceramide labeling) [3]: produces a similar fragmentation of TGN structure
structure of the PRC (bodipy-lactalbumin labeling) [3]: disrupts the structure of the PRC
